# Measured values as given in patent US12637440B2, “Amide derivative useful as diacylglycerol acyltransferase 2 inhibitor, and use thereof” (LG CHEM, LTD., priority 2019, dated 2026).
# Target: T1, Recombinant human DGAT2 protein (Homo sapiens, UniProt Q96PD7)
# T1 construct: FLAG (DYKDDDDK); (N); made in house; host or cells: Sf-21 insect cells (BacPAK baculovirus system); used as a membrane preparation
# T1 sequence (Q96PD7 1-388): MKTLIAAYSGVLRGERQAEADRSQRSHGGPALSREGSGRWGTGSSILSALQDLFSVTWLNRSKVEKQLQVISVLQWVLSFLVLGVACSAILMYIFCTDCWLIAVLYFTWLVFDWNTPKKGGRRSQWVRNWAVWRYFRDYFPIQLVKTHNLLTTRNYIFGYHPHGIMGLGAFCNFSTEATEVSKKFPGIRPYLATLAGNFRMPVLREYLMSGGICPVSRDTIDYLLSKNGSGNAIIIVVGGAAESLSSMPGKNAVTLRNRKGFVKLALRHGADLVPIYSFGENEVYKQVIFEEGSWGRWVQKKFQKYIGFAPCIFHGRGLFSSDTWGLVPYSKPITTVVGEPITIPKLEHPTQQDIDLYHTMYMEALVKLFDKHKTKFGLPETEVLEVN
# Test: Measurement of inhibitory effect against DGAT2 enzyme activity (SPA, Phospholipid FlashPlate, [14C]-TG production)
# Format: biochemical
# Settings: concentration inhibiting [14C]-labeled triacyl glycerol (TG) production by 50%; 2 μg DGAT2-membrane protein from Sf-21 cells, 37° C.
# Procedure, shortened: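 Membranes from Sf-21 cells expressing human DGAT2 (2 μg) preincubated 20 min at 37 °C with compound (3 nM–10 μM, 1% DMSO) in HEPES/MgCl2/BSA with 50 μM 1,2-dioleoyl glycerol, then 1 μM [14C]oleoyl-CoA for 15 min. [14C]-TG measured by SPA FlashPlate; inhibition as % of untreated control.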
row,Structure (SMILES),IC50
1,"CCOc1ccccc1O[C@@H]1CCCN(c2cncc(NC(=O)[C@@H]3CCCN(c4cccc(CC(C)(C)C(=O)O)c4)C3)n2)C1 [Example 85, 3-(3-((R)-3-((6-((R)-3-(2-ethoxyphenoxy)piperidin-1-yl)pyrazin-2-yl)carbamoyl)piperidin-1-yl)phenyl)-2,2-dimethylpropanoic acid]",42 nM
2,"CCOc1ccccc1O[C@@H]1CCCN(c2cncc(NC(=O)C(C)(C)c3ccc(N4CCC(C(=O)O)CC4)cc3)n2)C1 [Example 86, (R)-1-(4-(1-((6-(3-(2-ethoxyphenoxy)piperidin-1-yl)pyrazin-2-yl)amino)-2-methyl-1-oxopropan-2-yl)phenyl)piperidine-4-carboxylic acid]",> 10000 nM
3,"CCOc1ccccc1O[C@@H]1CCCN(c2cncc(NC(=O)C3CCN(c4ccc(C(=O)O)cn4)C3)n2)C1 (stereo partly drawn) [Example 87, 6-(3-((6-((R)-3-(2-ethoxyphenoxy)piperidin-1-yl)pyrazin-2-yl)carbamoyl)pyrrolidin-1-yl)nicotinic acid]",160 nM
4,"CCOc1ccccc1O[C@@H]1CCCN(c2cncc(NC(=O)C3(C)CCNC3)n2)C1 (stereo partly drawn) [Example 88, N-(6-((R)-3-(2-ethoxyphenoxy)piperidin-1-yl)pyrazin-2-yl)-3-methylpyrrolidine-3-carboxamide]",6200 nM
5,"CCOc1ccccc1O[C@@H]1CCCN(c2cncc(NC(=O)C3(C)CCN(c4ccc(C(=O)O)cn4)C3)n2)C1 (stereo partly drawn) [Example 89, 6-(3-((6-((R)-3-(2-ethoxyphenoxy)piperidin-1-yl)pyrazin-2-yl)carbamoyl)-3-methylpyrrolidin-1-yl)nicotinic acid]",590 nM
6,"CC(C)Oc1ccccc1O[C@@H]1CCCN(c2cncc(NC(=O)Cc3ccc(CC(=O)O)cc3)n2)C1 [Example 90, (R)-2-(4-(2-((6-(3-(2-isopropoxyphenoxy)piperidin-1-yl)pyrazin-2-yl)amino)-2-oxoethyl)phenyl)acetic acid]",> 10000 nM
7,"COc1ccccc1O[C@@H]1CCCN(c2cncc(NC(=O)CCc3ccc(C(C)(C)C(=O)O)cc3)n2)C1 [Example 91, (R)-2-(4-(3-((6-(3-(2-methoxyphenoxy)piperidin-1-yl)pyrazin-2-yl)amino)-3-oxopropyl)phenyl)-2-methylpropanoic acid]",370 nM
8,"CC(C)(C(=O)O)c1ccc(CCC(=O)Nc2cncc(N3CCC[C@@H](Oc4ccccc4OCCF)C3)n2)cc1 [Example 93, (R)-2-(4-(3-((6-(3-(2-(2-fluoroethoxy)phenoxy)piperidin-1-yl)pyrazin-2-yl)amino)-3-oxopropyl)phenyl)-2-methylpropanoic acid]",190 nM
9,"CC(C)(Cc1ccc(CC(=O)Nc2cncc(N3CCC[C@@H](Oc4ccccc4OCCF)C3)n2)cc1)C(=O)O [Example 94, (R)-3-(4-(2-((6-(3-(2-(2-fluoroethoxy)phenoxy)piperidin-1-yl)pyrazin-2-yl)amino)-2-oxoethyl)phenyl)-2,2-dimethylpropanoic acid]",110 nM
10,"CC(C)(Cc1ccc(CC(=O)Nc2cncc(N3CCC[C@@H](Oc4ccccc4OC4CC4)C3)n2)cc1)C(=O)O [Example 95, (R)-3-(4-(2-((6-(3-(2-cyclopropoxyphenoxy)piperidin-1-yl)pyrazin-2-yl)amino)-2-oxoethyl)phenyl)-2,2-dimethylpropanoic acid]",150 nM
11,"CC(C)(Cc1ccc(CC(=O)Nc2cncc(N3CCC[C@@H](Oc4ccccc4OC4CCC4)C3)n2)cc1)C(=O)O [Example 96, (R)-3-(4-(2-((6-(3-(2-cyclobutoxyphenoxy)piperidin-1-yl)pyrazin-2-yl)amino)-2-oxoethyl)phenyl)-2,2-dimethylpropanoic acid]",200 nM
12,"CC(C)(C(=O)O)c1ccc(CCC(=O)Nc2cncc(N3CCC[C@@H](Oc4ccccc4OC4CCC4)C3)n2)cc1 [Example 98, (R)-2-(4-(3-((6-(3-(2-cyclobutoxyphenoxy)piperidin-1-yl)pyrazin-2-yl)amino)-3-oxopropyl)phenyl)-2-methylpropanoic acid]",81 nM
13,CCOc1ccccc1O[C@@H]1CCCN(c2cncc(NC(=O)Cc3ccc(OCC(=O)O)cc3)n2)C1 [Example 99],2900 nM
